Test results published in ChEMBL document CHEMBL1201862, “PubChem BioAssay data set” (2004).
Calls of active or inactive are those of the source.

What was measured:
[1] = target: Potassium voltage-gated channel subfamily KQT member 2 (Rattus norvegicus, UniProt O88943); experiment: blockers of KCNQ2 channel current – cell-based, automated electrophysiology, set II, rat KCNQ2, dose response (AID 588637); type: functional
[2] = Counterscreen for inhibitors of Trypanosoma brucei methionyl tRNA synthetase (MetRS): Luminescence-based cell-based high throughput dose response assay to identify compounds that are cytotoxic to Jurkat human T lymphocyte cells.; type: functional
[3] = target: T1, Methionyl-tRNA synthetase, putative (Trypanosoma brucei brucei, UniProt Q38C91); type: functional, Trypanosoma brucei brucei strain 927/4 GUTat10.1
T1 sequence (Q38C91 whole entry): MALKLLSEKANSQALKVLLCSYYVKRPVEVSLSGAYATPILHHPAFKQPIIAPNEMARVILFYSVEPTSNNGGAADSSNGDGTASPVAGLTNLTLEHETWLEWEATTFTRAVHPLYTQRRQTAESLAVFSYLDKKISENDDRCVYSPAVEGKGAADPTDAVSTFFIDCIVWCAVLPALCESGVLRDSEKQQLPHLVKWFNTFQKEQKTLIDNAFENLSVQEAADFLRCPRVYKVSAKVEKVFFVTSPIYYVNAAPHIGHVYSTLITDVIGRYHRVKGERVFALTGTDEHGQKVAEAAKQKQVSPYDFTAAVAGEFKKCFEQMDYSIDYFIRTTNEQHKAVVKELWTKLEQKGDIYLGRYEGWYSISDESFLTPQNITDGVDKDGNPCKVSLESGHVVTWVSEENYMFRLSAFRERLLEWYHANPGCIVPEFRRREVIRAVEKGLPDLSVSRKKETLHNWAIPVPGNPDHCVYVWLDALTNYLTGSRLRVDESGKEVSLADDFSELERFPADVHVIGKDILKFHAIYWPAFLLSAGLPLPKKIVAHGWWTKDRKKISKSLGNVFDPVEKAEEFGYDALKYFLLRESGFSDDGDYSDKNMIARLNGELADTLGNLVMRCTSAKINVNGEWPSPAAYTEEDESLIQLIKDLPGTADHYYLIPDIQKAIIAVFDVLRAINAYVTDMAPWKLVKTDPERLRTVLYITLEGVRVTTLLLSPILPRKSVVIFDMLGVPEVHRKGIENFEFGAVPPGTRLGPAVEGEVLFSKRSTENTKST

[4] = target: T1, Methionyl-tRNA synthetase, putative; type: functional, Trypanosoma brucei brucei strain 927/4 GUTat10.1; remark: listed apart in the source
[5] = (§1) Counterscreen for antagonists of the orexin 1 receptor (OX1R; HCRTR1): Fluorescence-based cell-based high throughput dose response assay to identify antagonists of the parental CHO cell line. [Related pubchem assays (depositor defined):AID434989, AID435008, AID463079, AID485270, AID492963, AID492964, AID492965, AID493232, AID504699, AID504701]; type: functional
Orexin receptor type 2 [6] = target: T2, Orexin receptor type 2 (Homo sapiens, UniProt O43614); experiment: Counterscreen assay for antagonists of the orexin 1 receptor (OX1R; HCRTR1): Fluorescence-based cell-based dose response assay for antagonists of the orexin 2 receptor (OX2R; HCRTR2), run by assay provider.; type: functional
T2 sequence (O43614 whole entry): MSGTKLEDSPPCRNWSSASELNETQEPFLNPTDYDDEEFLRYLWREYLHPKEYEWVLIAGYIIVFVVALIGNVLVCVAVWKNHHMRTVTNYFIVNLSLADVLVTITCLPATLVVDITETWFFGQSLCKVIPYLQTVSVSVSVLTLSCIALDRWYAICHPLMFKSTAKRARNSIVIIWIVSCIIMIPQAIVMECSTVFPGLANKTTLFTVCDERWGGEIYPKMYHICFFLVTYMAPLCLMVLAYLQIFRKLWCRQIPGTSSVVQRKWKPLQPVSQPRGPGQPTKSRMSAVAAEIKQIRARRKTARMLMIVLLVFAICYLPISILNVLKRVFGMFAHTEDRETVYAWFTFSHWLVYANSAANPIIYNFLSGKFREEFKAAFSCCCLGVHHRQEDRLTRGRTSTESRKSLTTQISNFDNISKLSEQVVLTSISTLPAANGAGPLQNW

Orexin receptor type 2 [7] = target: T2, Orexin receptor type 2; experiment: Counterscreen assay for antagonists of the orexin 1 receptor (OX1R; HCRTR1): Homogeneous Time Resolved Fluorescence (HTRF)-based cell-based dose response assay for antagonists of the orexin 2 receptor (OX2R; HCRTR2), run by assay provider.; type: functional
[8] = target: T3, Orexin/Hypocretin receptor type 1 (Homo sapiens, UniProt O43613); experiment: Homogeneous Time Resolved Fluorescence (HTRF)-based cell-based high throughput dose response assay for antagonists of the orexin 1 receptor (OX1R; HCRTR1). [Related pubchem assays (depositor defined):AID434989, AID435008, AID463079, AID485270, AID492963, AID492964, AID492965, AID493232, AID504717, AID504718]; type: functional
T3 sequence (O43613 whole entry): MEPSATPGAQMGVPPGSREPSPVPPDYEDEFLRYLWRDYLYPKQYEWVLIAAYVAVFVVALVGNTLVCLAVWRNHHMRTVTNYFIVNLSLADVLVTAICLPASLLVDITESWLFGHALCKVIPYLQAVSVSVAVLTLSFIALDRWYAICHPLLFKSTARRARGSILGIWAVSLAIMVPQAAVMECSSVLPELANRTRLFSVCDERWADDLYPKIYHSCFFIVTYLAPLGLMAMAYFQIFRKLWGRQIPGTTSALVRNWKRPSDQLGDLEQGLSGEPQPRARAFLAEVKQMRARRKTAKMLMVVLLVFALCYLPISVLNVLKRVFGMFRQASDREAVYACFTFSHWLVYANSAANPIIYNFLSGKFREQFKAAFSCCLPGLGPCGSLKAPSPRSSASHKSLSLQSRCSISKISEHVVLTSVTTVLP

[9] = target: T3, Orexin/Hypocretin receptor type 1; experiment: Fluorescence-based cell-based high throughput dose response assay for antagonists of the orexin 1 receptor (OX1R; HCRTR1). [Related pubchem assays (depositor defined):AID434989, AID435008, AID463079, AID485270, AID492963, AID492964, AID492965, AID493232, AID504717, AID504718]; type: functional
CHO-K1 = experiment: as §1, with “Homogeneous time resolved fluorescence (HTRF)-based” for “Fluorescence-based”, “cell-based” for “cell-based high throughput”, “CHO-K1” for “CHO”; type: functional; settings: Cricetulus griseus;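 note: potency for inhibition of ATP-stimulated IP1 production as antagonists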
[10] = blockers of HIV-1 envelope-mediated cell-cell fusion – cherry-pick, dose response (AID 652057); type: functional, cell-based
[11] = reduction of Shn3 3'UTR-driven luciferase in osteoblasts – cell-based, Clone20 osteoblasts, firefly luciferase, cherry-picked, dose response (AID 624132); type: functional;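 note: firefly luciferase luminescence from reporter carrying the Shn3 3'UTR in osteoblasts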
[12] = non-specific 3'UTR reporter inhibition in Clone20-Shn3RL – cell-based, Renilla luciferase, cherry-picked, counter-screen for Shn3 inhibitor project, dose response (AID 624133); type: functional
[13] = loss of viability in HepG2 cells – cell-based, CellTiter-Glo, cherry-picked, cytotoxicity control for Shn3 inhibitor project, dose response (AID 624134); type: functional
[14] = off-target signal loss in HeLa-CEM21 co-culture – HeLa F-luc CTL cells, cherry-picked, counter-screen for HIV-1 Env fusion inhibitor project, dose response (AID 652040); type: functional, cell-based;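 note: potency for signal decrease marking cytotoxic or nonspecific inhibition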
[15] = HIV-1 AD8 envelope cell-cell fusion blockers – cherry-pick, dose response (AID 652062); type: functional, cell-based;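 note: luciferase signal from cell-cell fusion driven by HIV-1 clade B AD8 Env; potency is for inhibitors of fusion seen as a drop in luminescence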
Protein Wnt-3a = Protein Wnt-3a (Mus musculus, UniProt P27467); experiment: antagonism of Wnt3a pathway luciferase reporter – Wnt-LIGHT cells, luminescence, selectivity assay for Gli-SUFU antagonist project, dose response (AID 651570); type: functional; settings: read-out: IC50_Mean;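 note: Wnt-LIGHT reporter cells stimulated with conditioned medium from Wnt3a-producing cells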
Chain of Protein Wnt-3a (P27467 whole entry): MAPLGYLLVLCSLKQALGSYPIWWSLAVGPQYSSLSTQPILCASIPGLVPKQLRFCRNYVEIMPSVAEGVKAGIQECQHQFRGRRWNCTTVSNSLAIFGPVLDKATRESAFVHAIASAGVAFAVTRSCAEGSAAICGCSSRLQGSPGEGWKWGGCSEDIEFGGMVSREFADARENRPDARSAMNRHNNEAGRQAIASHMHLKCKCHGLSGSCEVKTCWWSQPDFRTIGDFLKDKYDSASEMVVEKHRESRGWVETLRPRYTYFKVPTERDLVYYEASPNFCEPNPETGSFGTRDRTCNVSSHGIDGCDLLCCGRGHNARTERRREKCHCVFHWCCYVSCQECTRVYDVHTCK

Cysteine protease ATG4B = target: T4, Cysteine protease ATG4B (Homo sapiens, UniProt Q9Y4P1); type: functional;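 note: Fluorescence-based dose-response confirmation assay measuring inhibition of ATG4B activity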
T4 sequence (Q9Y4P1 whole entry): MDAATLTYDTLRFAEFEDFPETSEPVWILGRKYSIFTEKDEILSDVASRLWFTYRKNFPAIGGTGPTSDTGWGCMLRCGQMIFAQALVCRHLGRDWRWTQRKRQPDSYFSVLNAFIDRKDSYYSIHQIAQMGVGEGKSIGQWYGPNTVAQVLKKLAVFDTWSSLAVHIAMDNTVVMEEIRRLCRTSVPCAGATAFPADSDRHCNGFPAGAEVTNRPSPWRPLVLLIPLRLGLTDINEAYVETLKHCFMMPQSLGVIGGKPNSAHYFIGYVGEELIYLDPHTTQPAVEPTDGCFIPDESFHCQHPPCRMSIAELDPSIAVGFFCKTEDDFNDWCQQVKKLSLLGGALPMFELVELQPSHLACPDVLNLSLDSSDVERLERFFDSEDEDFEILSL

Phospholipase A2 = Phospholipase A2 (Homo sapiens, UniProt P04054); type: functional;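 note: confirmatory dose-response counterscreen on phospholipase A2, testing hits that came from an ultra-high-throughput screen for ATG4B inhibitors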
Chain of Phospholipase A2 (P04054 whole entry): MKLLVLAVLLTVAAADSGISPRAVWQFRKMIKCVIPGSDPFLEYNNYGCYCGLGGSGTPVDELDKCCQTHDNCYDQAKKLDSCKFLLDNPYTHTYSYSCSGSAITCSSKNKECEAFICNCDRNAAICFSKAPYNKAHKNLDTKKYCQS

[16] = target: T5, Aryl hydrocarbon receptor (Homo sapiens, UniProt P35869); settings: Potency;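 note: confirmatory quantitative high-throughput screen measuring activation of the AhR signaling pathway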
T5 sequence (P35869 whole entry): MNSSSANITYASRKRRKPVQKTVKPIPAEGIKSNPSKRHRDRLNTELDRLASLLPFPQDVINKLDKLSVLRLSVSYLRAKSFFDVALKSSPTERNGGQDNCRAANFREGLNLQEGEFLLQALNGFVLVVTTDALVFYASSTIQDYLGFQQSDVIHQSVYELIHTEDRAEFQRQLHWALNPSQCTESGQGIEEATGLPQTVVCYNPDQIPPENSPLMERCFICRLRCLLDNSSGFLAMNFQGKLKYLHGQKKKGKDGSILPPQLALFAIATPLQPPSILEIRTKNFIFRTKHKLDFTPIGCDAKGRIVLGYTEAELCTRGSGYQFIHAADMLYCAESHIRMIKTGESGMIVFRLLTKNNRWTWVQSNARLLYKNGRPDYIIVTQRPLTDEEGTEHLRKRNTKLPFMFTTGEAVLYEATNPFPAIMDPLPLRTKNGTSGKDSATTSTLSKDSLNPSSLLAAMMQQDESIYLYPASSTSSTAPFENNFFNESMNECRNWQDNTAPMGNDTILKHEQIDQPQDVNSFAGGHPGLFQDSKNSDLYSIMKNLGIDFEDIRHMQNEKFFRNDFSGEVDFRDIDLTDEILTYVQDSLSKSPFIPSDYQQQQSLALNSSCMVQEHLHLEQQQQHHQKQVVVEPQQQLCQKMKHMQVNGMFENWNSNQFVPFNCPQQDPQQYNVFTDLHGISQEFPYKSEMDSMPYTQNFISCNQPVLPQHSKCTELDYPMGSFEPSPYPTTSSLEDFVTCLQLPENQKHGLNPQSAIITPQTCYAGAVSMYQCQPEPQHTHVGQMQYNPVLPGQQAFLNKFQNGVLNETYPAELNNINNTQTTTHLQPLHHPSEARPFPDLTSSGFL

[17] = target: Mitogen-activated protein kinase 10 (Homo sapiens, UniProt P53779); experiment: Dose response biochemical screening assay for inhibitors of c-Jun N-Terminal Kinase 3 (JNK3). [Related pubchem assays: 746 ]
Chain of Mitogen-activated protein kinase 10 (P53779 whole entry): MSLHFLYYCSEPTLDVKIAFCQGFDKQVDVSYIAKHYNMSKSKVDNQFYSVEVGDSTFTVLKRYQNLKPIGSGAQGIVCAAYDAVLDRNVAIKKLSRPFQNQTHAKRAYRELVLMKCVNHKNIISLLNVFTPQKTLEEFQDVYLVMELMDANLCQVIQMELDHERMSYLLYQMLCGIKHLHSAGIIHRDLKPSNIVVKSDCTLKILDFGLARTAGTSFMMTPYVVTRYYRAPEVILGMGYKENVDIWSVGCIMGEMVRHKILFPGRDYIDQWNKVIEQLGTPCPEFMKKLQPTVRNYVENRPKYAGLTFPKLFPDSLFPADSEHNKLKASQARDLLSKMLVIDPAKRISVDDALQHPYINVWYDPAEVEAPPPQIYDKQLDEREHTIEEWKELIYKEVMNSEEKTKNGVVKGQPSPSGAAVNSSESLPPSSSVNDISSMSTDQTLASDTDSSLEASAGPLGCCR

Interleukin-8 = target: T6, Interleukin-8 (Homo sapiens, UniProt P10145); experiment: Dose Response confirmation of uHTS small molecule hits for cystic fibrosis induced NFkb Inhibitors in a PAF-induced IL8 counterscreen.; type: functional; settings: read-out: IC50_Mean
T6 sequence (P10145 whole entry): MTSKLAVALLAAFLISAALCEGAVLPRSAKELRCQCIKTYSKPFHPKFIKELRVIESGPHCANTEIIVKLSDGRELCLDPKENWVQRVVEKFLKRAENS

[18] = target: Long-chain-fatty-acid--AMP ligase FadD28 (Mycobacterium tuberculosis, UniProt P9WQ59); experiment: Fluorescence polarization aasay to screen for inhibitors that compete for the binding of FadD28 to a bisubstrate Measured in Biochemical System Using Plate Reader - 2147-01_Inhibitor_Dose_CherryPick_Activity.; type: functional, Mycobacterium tuberculosis H37Rv
Chain of Long-chain-fatty-acid--AMP ligase FadD28 (P9WQ59 whole entry): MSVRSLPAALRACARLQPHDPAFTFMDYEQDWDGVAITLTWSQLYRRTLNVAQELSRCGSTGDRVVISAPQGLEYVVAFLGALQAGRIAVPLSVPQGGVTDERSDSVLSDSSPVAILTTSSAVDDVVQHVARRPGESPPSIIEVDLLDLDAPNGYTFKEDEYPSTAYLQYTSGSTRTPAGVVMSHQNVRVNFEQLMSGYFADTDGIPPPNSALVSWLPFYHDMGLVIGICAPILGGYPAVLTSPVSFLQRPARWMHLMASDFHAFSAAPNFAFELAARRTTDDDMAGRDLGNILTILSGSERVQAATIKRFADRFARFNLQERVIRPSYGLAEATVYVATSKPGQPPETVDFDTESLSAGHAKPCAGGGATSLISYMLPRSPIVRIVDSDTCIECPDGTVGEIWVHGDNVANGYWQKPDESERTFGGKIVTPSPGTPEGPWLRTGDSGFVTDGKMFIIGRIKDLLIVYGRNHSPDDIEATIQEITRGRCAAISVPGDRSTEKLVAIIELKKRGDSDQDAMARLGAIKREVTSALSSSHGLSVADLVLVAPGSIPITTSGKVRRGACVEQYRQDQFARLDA

Chain of Potassium voltage-gated channel subfamily KQT member 2 (O88943 whole entry): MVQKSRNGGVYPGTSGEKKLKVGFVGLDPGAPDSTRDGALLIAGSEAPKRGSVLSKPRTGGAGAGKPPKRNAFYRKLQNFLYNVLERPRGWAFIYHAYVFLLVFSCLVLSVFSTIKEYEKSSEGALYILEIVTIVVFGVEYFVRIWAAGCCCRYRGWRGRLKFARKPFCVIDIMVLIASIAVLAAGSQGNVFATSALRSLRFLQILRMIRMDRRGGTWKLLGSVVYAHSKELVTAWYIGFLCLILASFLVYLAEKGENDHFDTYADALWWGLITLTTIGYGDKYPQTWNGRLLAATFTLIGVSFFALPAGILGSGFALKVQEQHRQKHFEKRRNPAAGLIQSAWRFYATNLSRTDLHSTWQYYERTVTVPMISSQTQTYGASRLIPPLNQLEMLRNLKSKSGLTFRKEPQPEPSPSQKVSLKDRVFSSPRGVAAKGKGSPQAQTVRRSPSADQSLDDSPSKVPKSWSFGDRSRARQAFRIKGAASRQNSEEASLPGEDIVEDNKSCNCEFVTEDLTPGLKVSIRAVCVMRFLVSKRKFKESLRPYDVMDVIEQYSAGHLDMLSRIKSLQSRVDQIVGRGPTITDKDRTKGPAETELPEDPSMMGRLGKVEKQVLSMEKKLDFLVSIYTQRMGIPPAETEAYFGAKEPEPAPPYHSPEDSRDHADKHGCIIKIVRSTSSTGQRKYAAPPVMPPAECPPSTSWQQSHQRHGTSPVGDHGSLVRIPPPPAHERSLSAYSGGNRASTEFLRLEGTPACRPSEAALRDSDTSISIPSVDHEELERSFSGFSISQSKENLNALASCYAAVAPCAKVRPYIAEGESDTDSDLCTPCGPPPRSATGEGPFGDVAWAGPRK

CCC(C(=O)Nc1ccccc1N1CCCC1)c1ccccc1 (configuration not stated)
IC50 [1]: 0.161 µM (active)

O=C(Cc1ccc(Nc2nc3cc(Br)ccc3[nH]2)cc1)NCCc1cccs1
IC50 [2]: 27.8 µM (inactive)
IC50 [3]: 0.163 µM (active)
IC50 [4]: 0.286 µM (active)

COC(=O)[C@H](Cc1c[nH]c2ccccc12)NC(=O)CCCc1c[nH]c2ccccc12
IC50 [5]: 17.4 µM (inactive)
IC50 (Orexin receptor type 2 [6]): 17.2 µM (inactive)
IC50 (Orexin receptor type 2 [7]): 6.41 µM (active)
IC50 [8]: 15.3 µM (inactive)
IC50 [9]: 9.04 µM (active)
IC50 (CHO-K1): > 66.2 µM (inactive)

CCC(C)NS(=O)(=O)c1ccc(S(=O)(=O)N2CCCC3(CCCCC3)C2)cc1 (configuration not stated)
AC50 [10]: 21.4 µM (active)
AC50 [11]: 3.44 µM (active)
AC50 [12]: 5.9 µM (active)
AC50 [13]: 6.54 µM (active)
AC50 [14]: 58.9 µM (active)
AC50 [15]: 11.7 µM (active)
IC50 (Protein Wnt-3a): 5.16 µM (active)

COc1cccc(C2c3[nH]c4ccccc4c3C[C@H]3C(=O)N(C4CC4)CC(=O)N23)c1 (some centres not stated)
IC50 [2]: 83.2 µM (inactive)
IC50 [3]: 118 µM (inactive)
IC50 [4]: 36.8 µM (inactive)

O=C(CNCCc1ccc(Cl)cc1Cl)NCc1ccco1
IC50 (Cysteine protease ATG4B): 18.7 µM (active)
IC50 (Phospholipase A2): 12.3 µM (active)

Cc1ccc2c(c1[N+](=O)[O-])C(=O)c1ccccc1C2=O
AC50 [16]: 17.8 µM (inconclusive)

COC(=O)CSc1nc2cc(Cl)ccc2c(=O)n1C1CCCC1
IC50 (Cysteine protease ATG4B): 5.43 µM (active)
IC50 (Phospholipase A2): 11.4 µM (active)

CCc1sc(C(=O)Nc2ccccc2N2CCOCC2)cc1C
IC50 [1]: 5.75 µM (active)

COc1ccc(-c2cnc(N)nc2-c2ccc(OC)cc2O)cc1
IC50 [17]: 19.9 µM (not active)
IC50 (Interleukin-8): 14.6 µM (inactive)

Cc1ccc2nc(Nc3ccccc3)c(/C=N/O)c(=O)n2c1
IC50 [5]: > 49.8 µM (inactive)
IC50 (Orexin receptor type 2 [6]): 32.5 µM (inactive)
IC50 (Orexin receptor type 2 [7]): > 50 µM (inactive)
IC50 [8]: 5.11 µM (active)
IC50 [9]: 9.96 µM (active)
IC50 (CHO-K1): > 66.3 µM (inactive)

NC(=O)c1ccccc1OCC(=O)N1CCC(Cc2ccccc2)CC1
IC50 (Protein Wnt-3a): 3.28 µM (active)

CC1=C(C(=O)Nc2ccccc2)SCCO1 [CARBOXIN]
AC50 [16]: 50.1 µM (inconclusive)

COc1ccc(CN2CCC(C(=O)Nc3ccc(Oc4cccnc4)cc3)CC2)cc1
AC50 [18]: > 100 µM (inactive)
